Data set [1] in a line: Octanol-water partition coefficient (n-octanol/PBS pH 7.4). The data set is classed as physicochemical. As to conditions: octanol/PBS7.4. As to the method: Approximately 1 MBq of the labeled tracer was dissolved in 1 mL of a 1:1 mixture (by volumes) of phosphate buffered saline (PBS, pH 7.4) and n-octanol in an Eppendorf tube. After vigorous mixing of the suspension for 3 minutes at room temperature, the vial was centrifuged at 15000 g for 3 minutes (Biofuge 15, Heraus Sepatech, Osterode, Germany) and 100 μL aliquots of both layers were measured in a gamma counter. The experiment was repeated at least six times.
Determianation of the IogP values was carried out in phosphate buffered saline (PBS, pH 7.4) and n-octanol (=logPoct/PBS).

Data set [2] relates to PSMA-positive LNCaP cells. In words: Internalization in LNCaP cells, normalized to ([125I]I-BA)KuE. It is filed as cell-based. The following applies: LNCaP cells, 1 hour, 37° C. The procedure:
Data is corrected for non-specific binding ([…]) and expressed as mean±SD (n=3).
Subsequent to the removal of the culture medium, the cells were washed once with 500 μL DMEM-F12 (5% BSA) and left to equilibrate for at least 15 min at 37° C. in 200 μL DMEM-F12 (5% BSA). Each well was treated with either 25 μL of either DMEM-F12 (5% BSA) or a 100 μM PMPA solution for blockade. Next, 25 μL of the ^68Ga/^18F-labeled PSMA inhibitor (5.0 nM) was added and the cells incubated at 37° C. for 60 min. The experiment was terminated by placing the 24-well plate on ice for 3 min and consecutive removal of the medium. Each well was rinsed with 250 μL HBSS and the fractions from these first two steps combined, representing the amount of free radioligand. Removal of surface bound activity was accomplished by incubation of the cells with 250 μL of ice-cold PMPA (10 μM in PBS) solution for 5 min and rinsed again with another 250 μL of ice-cold PBS. The internalized activity was determined by incubation of the cells in 250 μL 1 M NaOH and the combination with the fraction of a subsequent wash step with 250 μL 1.0 M NaOH. Each experiment (control and blockade) was performed in triplicate. Free, surface bound and internalized activity was quantified in a γ-counter. […] Data were corrected for non-specific internalization and normalized to the specific-internalization observed for the radioiodinated reference compound.

The subject of data set [3] is LNCaP tumor-bearing SCID mice. In words: Biodistribution at 1 h p.i. with competition (co-injected PMPA). The data set is classed as in vivo. The following applies: co-injected with PMPA (8 mg/kg). The procedure: FIG. 11: Biodistribution [% ID/g] of ^18F-rhPSMAs co-injected with PMPA (8 mg/kg) at 1 h p.i in LNCaP tumor-bearing SCID mice. Data are expressed as mean±SD (n=3).

Data set [4] deals with LNCaP tumor bearing mouse. In words: Radio-TLC analysis of intact tracer and 18F-fluoride in blood, organ and urine samples, 30 min p.i. The data set is classed as in vivo, mice. The procedure: For radio-thin-layer chromatography, aluminum sheets coated with silica gel 60 RP-18 F254s were used with a mobile phase consisting of a 3:2 mixture (v/v) of MeCN in H2O supplemented with 10% of 2 M aqueous NaOAc and 1% of TFA. Analysis was performed using either a Scan-RAM radio-TLC detector (LabLogic Systems Ltd., Sheffield, United Kingdom) or a CR 35 BIO phosphorimager (Duerr Medical GmbH, Bietigheim-Bissingen, Germany).
In order to quantify the relative uptake of each isomer (rhPSMA-7.1-7.4), a tumor-bearing male CB-17-SCID mouse was injected with the racemic mixture of rhPSMA-7 (180-280 MBq, SA=247-349 GBq/μmol, produced at the Klinikum rechts der Isar in a fully automated procedure). The animal was left under anesthesia for 30 min and sacrificed. Urine, blood, liver, kidneys and tumor were collected and processed to the hereafter described procedures. The urine sample was centrifuged for 5 min at 9000 rpm to yield a clear solution and directly subjected to radio-HPLC analysis. Blood was diluted to 1 mL with H2O and centrifuged twice at 13000 g for 5 min. The supernatant was collected and loaded on a Strata X cartridge (33 μm Polymeric Reversed Phase 500 mg, pre-conditioned with 5 mL MeOH, followed by 5 mL H2O). After washing with 5 mL H2O, the cartridge was eluted with a 6:4 mixture (v/v) of MeCN in H2O, supplemented with 1% TFA. The eluate was diluted with water and analysed by radio-HPLC. Tumour, kidneys and liver were homogenised using either a Potter-Elvehjem tissue grinder (Kontes Glass Co, Vineland, USA) or a MM-400 ball mill (Retsch GmbH, Haan, Germany).
The organs (tumour, kidney, liver) were separately homogenised in a 2 mL tube together with 3 grinding balls (3 mm diameter) and 1 mL of extraction buffer (850 μL 1 M HEPES pH7.4, 100 μL 20 mM PMPA and 100 μL 1M NaCl) for 10 min at 30 Hz. The homogenate was centrifuged at 13000 g for 5 min and the supernatant was collected. Subsequently, the pellet was suspended in 1 mL of extraction buffer and homogenized again with the ball mill for 10 min at 30 Hz. After centrifugation (13000 g, 5 min), both supernatants were combined and loaded on a Strata X cartridge (33 μm Polymeric Reversed Phase 500 mg, pre-conditioned with 5 mL MeOH, followed by 5 mL H2O). After washing with 5 mL H2O, the cartridge was eluted with a 6:4 mixture (v/v) of MeCN in H2O, supplemented with 1% TFA. The eluate of each organ was diluted with water and analysed by radio-HPLC.
Radio-TLC Analysis was carried out a) on urine samples by directly subjecting a small volume onto a TLC strip, b) by analysis of a small volume of the non-immobilized activity during the SPE process (the ‘breakthrough fraction’), and c) by analysis of a small volume of the cartridge eluates.
Since none of the reagents and salts normally used for protein precipitation are tested for cold fluoride and to avoid possible liberation of F-18-fluoride from the tracer by isotopic exchange, protein precipitation was not implemented in the sample preparation process—although such protein load often result in limited peak separation, peak tailing and activity that sticks at the start line. The solutions obtained after tissue extraction (or blood centrifugation) were directly used for TLC analysis.

Setting [5] is: Phosphoimager, listed as [^18F]rhPSMA7-rac.
The mark [6] stands for this setting: TLC Scanner, listed as [^18F]rhPSMA7-rac.

“And” between values parts separate entries of the source, which are not always exact repeats. Equal entries are not always repeated. Marks after values point to notes of the source that are not given here.

On to `CC(C)(C)[Si](F)(c1ccc(C(=O)NC[C@@H](NC(=O)CC[C@@H](C(=O)O)N2CCN(CC(=O)[O-])CCN(CC(=O)[O-])CCN(CC(=O)[O-])CC2)C(=O)N[C@H](CCCCNC(=O)CCC(=O)NCCC[C@@H](NC(=O)CC[C@H](NC(=O)N[C@@H](CCC(=O)O)C(=O)O)C(=O)O)C(=O)O)C(=O)O)cc1)C(C)(C)C.[Ga+3]` [rhPSMA7.3, [^19F][^natGa]D-Dap-S-DOTAGA-rhPSMA7], for which the “log P Mean” value in data set [1] (mean of individual measurements) is given as −3.26. In addition, the “individual log P measurements” value in data set [1] (single measurements) is −3.06 and −3.07 and −2.86 and −3.39 and −3.33 and −3.34 and −3.20 and −3.40 and −3.41 and −3.48 and −3.49 and −3.32 and −3.45 and −3.53 and −3.43 and −3.56 and −3.03 and −3.08 and −3.02. In addition, the individual internalization rates in data set [2] (c=0.5 nM, single measurements) was 156.6 % of [^125I]IB-KuE and 156.0 % of [^125I]IB-KuE and 171.7 % of [^125I]IB-KuE. Besides, the “internalization rate Mean” value in data set [2] (mean) was 161.41 % of [^125I]IB-KuE. In addition, in data set [3], the Biodistribution adrenals is on record as 0.07 ± 0.09 % ID/g, the Biodistribution blood is 0.55 ± 0.14 % ID/g, the Biodistribution bone worked out at 0.34 ± 0.22 % ID/g and the Biodistribution heart stood at 0.26 ± 0.04 % ID/g. In data set [3], the Biodistribution intestine is 0.94 ± 0.97 % ID/g, the Biodistribution kidneys was found to be 15.5 ± 2.2 % ID/g, the Biodistribution liver was found to be 0.46 ± 0.14 % ID/g and the Biodistribution lung is given as 0.69 ± 0.10 % ID/g. In data set [3], this compound came in with a Biodistribution muscle of 0.09 ± 0.02 % ID/g, a Biodistribution pancreas of 0.11 ± 0.02 % ID/g, a Biodistribution spleen of 0.35 ± 0.02 % ID/g and a Biodistribution stomach of 0.76 ± 0.74 % ID/g. In data set [3] (LNCaP tumor), this compound yielded a Biodistribution tumor of 1.5 ± 0.4 % ID/g.
Regarding “[^19F][^natGa]D/L-Dap-R/S-DOTAGA-rhPSMA7 [rhPSMA7-rac]”, in data set [4] (Phosphoimager), the “Intact tracer, Blood” value turned out to be 96.80%; the “Intact tracer, Kidney” value turned out to be 96.48%; the “Intact tracer, Tumor” value is on record as 96.47%; the “^18F-Fluoride, Blood” value came to 3.20%. Further, in data set [4] (Phosphoimager), the “^18F-Fluoride, Kidney” value came out at 3.52% and the “^18F-Fluoride, Tumor” value came out at 4.15%. For the same compound, in data set [4] (setting [5]), the “Intact tracer, Liver” value is 93.92^# % and 74.15^# %; the “Intact tracer, Urine” value is 98.55% and 95.85%; the “^18F-Fluoride, Urine” value was 1.55% and 4.15%. In data set [4] (setting [6]), the “Intact tracer, Kidney” value was 94.04% and 94.58%; the “Intact tracer, Urine” value is 82.51% and 96.2%; the “^18F-Fluoride, Kidney” value is 5.96% and 5.42%.

The values are drawn from patent US12357711B2, “PSMA binding dual mode radiotracer and therapeutic” (Technische Universität München, priority 2019, dated 2025).
